Data: patent US9951064B2, “Azaindazole compounds as inhibitors of T790M containing EGFR mutants” (Genentech, Inc., priority 2013, dated 2018)

Experiments:
EGFR T790M L858R = molecular target: T1, EGFR T790M L858R (Homo sapiens, UniProt P00533, L858R/T790M); assay: EGFR T790M L858R biochemical assay (Caliper mobility shift); details: 5 μM ATP; apparent Ki (Morrison fit) converted by Cheng-Prusoff, Km of ATP 1.3 μM
T1 construct: purchased Life Technologies PV4879
How it was run: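 Caliper mobility-shift read-out, electrophoretic separation of substrate from product, after a 30-minute kinase reaction at 22 °C. EDTA at 80 mM terminates each reaction.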

EGFR del746-750 T790M = molecular target: T2, EGFR del746-750 T790M (Homo sapiens, UniProt P00533, DEL746-750/T790M); assay: EGFR del746-750 T790M biochemical assay (Caliper mobility shift); details: 5 μM ATP; apparent Ki (Morrison fit) converted by Cheng-Prusoff, Km of ATP 2.1 μM; read-out: EGFR(T790M/d746-750) Ki
T2 construct: purchased Carna Biosciences 08-528
How it was run: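 Caliper mobility-shift read-out, with product electrophoretically resolved from substrate and measured. Reactions were quenched with 80 mM EDTA after 30 min at 22 °C.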

[1] = molecular target: T3, phosphor-EGFR in H1975(L585R/T790M) mutant EGFR expressing cells (Homo sapiens, UniProt P00533, L858R/T790M); assay: H1975 pEGFR MSD cellular assay; assay type: cell-based; details: NCI-H1975 cells, serum starved, 1 hour compound incubation, pEGFR Tyr1068 MSD; read-out: HI975 pEGFR EC50
T3 construct: host or cells: NCI-H1975
How it was run: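 Phospho-EGFR read by MSD electrochemiluminescence: capture with anti-pEGFR antibody (overnight, 4° C), detection with SULFO-TAG anti-total EGFR (1 hour, room temperature). Before lysis, H1975 cells starved of serum overnight got compound for 1 hour at 37° C, 0.5% DMSO final. EC50 via four-parameter logistic regression of percent inhibition.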

[2] = system: H1975 (EGFR T790M/L858R) cell proliferation; assay: H1975 proliferation assay (Cell Titer-Glo); assay type: cell-based; details: Homo sapiens, NCI-H1975, 72 h, NCI-H1975 cells, 72 hour incubation, read-out: H1975 antiproliferative EC50
Experimental: H1975 Proliferation Assays
All cell culture reagents were purchased from Invitrogen/Gibco. Cells are cultured at 37° C. at 5% CO2 and split as recommended by ATCC.

T2 sequence (P00533 with tags, fused parts or gaps DEL746-750/T790M limits assumed): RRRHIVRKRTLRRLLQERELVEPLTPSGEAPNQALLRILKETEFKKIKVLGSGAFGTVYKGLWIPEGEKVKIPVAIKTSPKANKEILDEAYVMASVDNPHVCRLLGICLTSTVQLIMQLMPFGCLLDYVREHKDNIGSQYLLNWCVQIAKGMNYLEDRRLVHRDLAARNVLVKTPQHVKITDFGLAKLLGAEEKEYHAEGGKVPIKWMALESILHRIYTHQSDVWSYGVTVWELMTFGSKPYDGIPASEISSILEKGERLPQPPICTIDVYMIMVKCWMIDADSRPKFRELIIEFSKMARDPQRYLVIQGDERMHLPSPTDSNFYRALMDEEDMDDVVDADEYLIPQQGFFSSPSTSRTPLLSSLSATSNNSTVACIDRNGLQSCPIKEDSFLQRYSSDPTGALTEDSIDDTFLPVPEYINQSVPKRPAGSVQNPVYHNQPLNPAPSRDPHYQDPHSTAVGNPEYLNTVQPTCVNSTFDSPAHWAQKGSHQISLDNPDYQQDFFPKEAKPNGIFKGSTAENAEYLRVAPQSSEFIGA
T1 sequence (P00533 25-1210 T790M/L858R): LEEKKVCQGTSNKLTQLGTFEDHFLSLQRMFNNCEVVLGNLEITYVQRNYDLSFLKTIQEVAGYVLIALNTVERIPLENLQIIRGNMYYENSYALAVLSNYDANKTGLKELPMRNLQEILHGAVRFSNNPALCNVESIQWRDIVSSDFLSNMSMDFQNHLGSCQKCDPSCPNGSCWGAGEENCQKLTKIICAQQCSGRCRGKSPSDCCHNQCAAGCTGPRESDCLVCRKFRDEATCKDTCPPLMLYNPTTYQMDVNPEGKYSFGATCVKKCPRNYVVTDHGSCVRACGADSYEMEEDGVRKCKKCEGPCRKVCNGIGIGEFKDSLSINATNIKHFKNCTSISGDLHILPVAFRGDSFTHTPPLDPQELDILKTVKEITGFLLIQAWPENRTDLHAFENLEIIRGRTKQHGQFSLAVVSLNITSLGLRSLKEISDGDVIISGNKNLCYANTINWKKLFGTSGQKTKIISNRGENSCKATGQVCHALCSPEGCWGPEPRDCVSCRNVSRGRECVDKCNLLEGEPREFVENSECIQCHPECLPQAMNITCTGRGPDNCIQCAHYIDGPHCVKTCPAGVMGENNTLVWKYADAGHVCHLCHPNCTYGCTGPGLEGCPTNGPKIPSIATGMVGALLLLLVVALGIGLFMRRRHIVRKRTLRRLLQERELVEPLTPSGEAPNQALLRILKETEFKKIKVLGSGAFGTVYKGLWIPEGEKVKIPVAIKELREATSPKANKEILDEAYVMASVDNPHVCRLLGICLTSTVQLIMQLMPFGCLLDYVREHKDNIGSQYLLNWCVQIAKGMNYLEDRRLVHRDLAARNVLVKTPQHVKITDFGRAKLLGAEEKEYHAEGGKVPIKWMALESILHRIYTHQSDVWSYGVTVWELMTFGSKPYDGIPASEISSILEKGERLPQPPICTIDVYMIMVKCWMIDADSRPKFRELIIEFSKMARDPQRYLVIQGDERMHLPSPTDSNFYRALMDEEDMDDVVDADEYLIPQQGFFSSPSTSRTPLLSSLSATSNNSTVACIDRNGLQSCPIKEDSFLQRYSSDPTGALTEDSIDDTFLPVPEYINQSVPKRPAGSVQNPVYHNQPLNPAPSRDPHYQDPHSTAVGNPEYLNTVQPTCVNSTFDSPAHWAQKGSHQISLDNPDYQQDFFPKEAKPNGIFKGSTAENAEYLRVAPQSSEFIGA
T3 sequence (P00533 25-1210 T790M/L858R): as above

SMILES | Ki (EGFR T790M L858R) [µM] | Ki (EGFR del746-750 T790M) [µM] | EC50 [1] [µM] | EC50 [2] [µM]
CC(C)n1nc(N2CC3(C2)C[S+]([O-])C3)c2cnc(Nc3ccnc(N4CCC(C)(O)CC4)n3)cc21 [Example 138, 6-(6-((2-(4-Hydroxy-4-methylpiperidin-1-yl)pyrimidin-4-yl)amino)-1-isopropyl-1H-pyrazolo[4,3-c]pyridin-3-yl)-2-thia-6-azaspiro[3.3]heptane 2-oxide] | 0.0046 | 0.0196 | 1.41 | 3.91
CC(C)n1nc(NCCC2OCC(N)CO2)c2cnc(Nc3ccnc(N4CCC(C)(O)CC4)n3)cc21 (centres unmarked) [Example 139, 1-(4-(3-(2-(5-Amino-1,3-dioxan-2-yl)ethylamino)-1-isopropyl-1H-pyrazol[4,3-c]pyridin-6-ylamino)pyrimidin-2-yl)-4-methylpiperidin-4-ol] | 0.0071 | 0.0183 | 6.07 | > 10
CC(n1nc(N2CC[C@@H](O)C2)c2cnc(Nc3ccnc(N4CCC(C)(O)CC4)n3)cc21)C(F)(F)F (stereo partly drawn) [Example 143, 1-(4-(3-((R)-3-Hydroxypyrrolidin-1-yl)-1-(1,1,1-trifluoropropan-2-yl)-1H-pyrazolo[4,3-c]pyridin-6-ylamino)pyrimidin-2-yl)-4-methylpiperidin-4-ol] | 0.0029 | 0.0113 | 0.219 | 0.901
CCC(C)n1nc(N2CC[C@H](C(N)=O)C2)c2cnc(Nc3ccnc(N4CCC(C)(O)CC4)n3)cc21 (stereo partly drawn) [Example 144, (3S)-1-(1-sec-Butyl-6-(2-(4-hydroxy-4-methylpiperidin-1-yl)pyrimidin-4-ylamino)-1H-pyrazolo[4,3-c]pyridin-3-yl)pyrrolidine-3-carboxamide] | 0.0018 | 0.0021 | 0.941 | 2.2
CCC(C)n1nc(N2CC(F)(F)C2)c2cnc(Nc3ccnc(N4CCC(C)(O)CC4)n3)cc21 (centres unmarked) [Example 146, 1-(4-(1-sec-Butyl-3-(3,3-difluoroazetidin-1-yl)-1H-pyrazolo[4,3-c]pyridin-6-ylamino)pyrimidin-2-yl)-4-methylpiperidin-4-ol] | 0.0025 | 0.0049 | 0.277 | 1.6
CC(C)n1nc(N2CCC(C)(C(N)=O)C2)c2cnc(Nc3ccnc(N4CCC(C)(O)CC4)n3)cc21 (centres unmarked) [Example 157, 1-(6-(2-(4-Hydroxy-4-methylpiperidin-1-yl)pyrimidin-4-ylamino)-1-isopropyl-1H-pyrazolo[4,3-c]pyridin-3-yl)-3-methylpyrrolidine-3-carboxamide] | 0.0026 | 0.0049 | 1.33 | 2.86
CC(C)n1nc(N2CC[C@@H](N)C2=O)c2cnc(Nc3ccnc(N4CCC(C)(O)CC4)n3)cc21 [Example 158, (R)-3-Amino-1-(6-(2-(4-hydroxy-4-methylpiperidin-1-yl)pyrimidin-4-ylamino)-1-isopropyl-1H-pyrazolo[4,3-c]pyridin-3-yl)pyrrolidin-2-one] | 0.0185 | 0.0509 | 1.3 | 8.12
CC(C)n1nc(N2CC[C@H](N)C2=O)c2cnc(Nc3ccnc(N4CCC(C)(O)CC4)n3)cc21 [Example 159, (S)-3-Amino-1-(6-(2-(4-hydroxy-4-methylpiperidin-1-yl)pyrimidin-4-ylamino)-1-isopropyl-1H-pyrazolo[4,3-c]pyridin-3-yl)pyrrolidin-2-one] | 0.0116 | 0.0285 | 1.1 | 9.73
CC(C)n1nc(N2CC3(C2)CS(=O)(=O)C3)c2cnc(Nc3ccnc(N4CCC(C)(O)CC4)n3)cc21 [Example 160, 6-(6-((2-(4-Hydroxy-4-methylpiperidin-1-yl)pyrimidin-4-yl)amino)-1-isopropyl-1H-pyrazolo[4,3-c]pyridin-3-yl)-2-thia-6-azaspiro[3.3]heptane 2,2-dioxide] | 0.0051 | 0.0097 | 0.962 | 3.09

More lines, now with the values ahead:

Ki (EGFR T790M L858R) [µM] | Ki (EGFR del746-750 T790M) [µM] | EC50 [1] [µM] | EC50 [2] [µM] | SMILES
0.0014 | 0.0016 | 0.921 | 7.17 | CCC(C)n1nc(N2CC[C@@H](C(N)=O)C2)c2cnc(Nc3ccnc(N4CCC(C)(O)CC4)n3)cc21 (stereo partly drawn) [Example 145, (3R)-1-(1-sec-Butyl-6-(2-(4-hydroxy-4-methylpiperidin-1-yl)pyrimidin-4-ylamino)-1H-pyrazolo[4,3-c]pyridin-3-yl)pyrrolidine-3-carboxamide]
0.0021 | 0.0012 | 0.0519 | 0.423 | CC(C)n1nc(N2CC(C(C)(C)O)C2)c2cnc(Nc3ccnc(-c4cnn(S(=O)(=O)C5CC5)c4)n3)cc21 [Example 149, 2-(1-(6-(2-(1-(Cyclopropylsulfonyl)-1H-pyrazol-4-yl)pyrimidin-4-ylamino)-1-isopropyl-1H-pyrazolo[4,3-c]pyridin-3-yl)azetidin-3-yl)propan-2-ol]
0.0049 | 0.0036 | 0.243 | 0.765 | CC(C)n1nc(N2CCCNC2=O)c2cnc(Nc3ccnc(-c4cnn(S(=O)(=O)C5CC5)c4)n3)cc21 [Example 150, 3-(6-(2-(1-(Cyclopropylsulfonyl)-1H-pyrazol-4-yl)pyrimidin-4-ylamino)-1-isopropyl-1H-pyrazolo[4,3-c]pyridin-3-yl)-tetrahydropyrimidin-2(1H)-one]
0.0087 | 0.0063 | 0.363 | 0.929 | CCN1CCN(c2nn(C(C)C)c3cc(Nc4ccnc(-c5cnn(S(=O)(=O)C6CC6)c5)n4)ncc23)C1=O [Example 151, 1-(6-(2-(1-(Cyclopropylsulfonyl)-1H-pyrazol-4-yl)pyrimidin-4-ylamino)-1-isopropyl-1H-pyrazolo[4,3-c]pyridin-3-yl)-3-ethylimidazolidin-2-one]
0.0021 | 0.0019 | 0.133 | 1.38 | CC(C)n1nc(N2CC(C(C)(C)C#N)C2)c2cnc(Nc3ccnc(-c4cnn(S(=O)(=O)C5CC5)c4)n3)cc21 [Example 153, 2-(1-(6-(2-(1-(Cyclopropylsulfonyl)-1H-pyrazol-4-yl)pyrimidin-4-ylamino)-1-isopropyl-1H-pyrazolo[4,3-c]pyridin-3-yl)azetidin-3-yl)-2-methylpropanenitrile]
0.0028 | 0.0029 | 0.082 | 0.312 | CC(C)n1nc(N2CC(F)(F)C2)c2cnc(Nc3ccnc(-c4cnn(S(=O)(=O)C5CC5)c4)n3)cc21 [Example 154, N-(2-(1-(Cyclopropylsulfonyl)-1H-pyrazol-4-yl)pyrimidin-4-yl)-3-(3,3-difluoroazetidin-1-yl)-1-isopropyl-1H-pyrazolo[4,3-c]pyridin-6-amine]
0.001 | 0.0009 | 0.0289 | 0.144 | CC(C)n1nc(N2CC(C#N)C2)c2cnc(Nc3ccnc(-c4cnn(S(=O)(=O)C5CC5)c4)n3)cc21 [Example 155, 1-(6-(2-(1-(Cyclopropylsulfonyl)-1H-pyrazol-4-yl)pyrimidin-4-ylamino)-1-isopropyl-1H-pyrazolo[4,3-c]pyridin-3-yl)azetidine-3-carbonitrile]
0.0011 | 0.0008 | 0.0392 | 0.163 | CC(C)n1nc(N2CCC(C(=O)N(C)C)C2)c2cnc(Nc3ccnc(-c4cnn(S(=O)(=O)C5CC5)c4)n3)cc21 (centres unmarked) [Example 156, 1-(6-(2-(1-(Cyclopropylsulfonyl)-1H-pyrazol-4-yl)pyrimidin-4-ylamino)-1-isopropyl-1H-pyrazolo[4,3-c]pyridin-3-yl)N,N-dimethylpyrrolidine-3-carboxamide]
0.0007 | 0.0006 | 0.0543 | 0.65 | CNC(=O)C1CN(c2nn(C(C)C)c3cc(Nc4ccnc(-c5cnn(S(=O)(=O)C6CC6)c5)n4)ncc23)C1 [Example 161, 1-(6-(2-(1-(Cyclopropylsulfonyl)-1H-pyrazol-4-yl)pyrimidin-4-ylamino)-1-isopropyl-1H-pyrazolo[4,3-c]pyridin-3-yl)-N-methylazetidine-3-carboxamide]
0.001 | 0.0008 | 0.0566 | 0.484 | CCNC(=O)C1CN(c2nn(C(C)C)c3cc(Nc4ccnc(-c5cnn(S(=O)(=O)C6CC6)c5)n4)ncc23)C1 [Example 162, 1-(6-(2-(1-(Cyclopropylsulfonyl)-1H-pyrazol-4-yl)pyrimidin-4-ylamino)-1-isopropyl-1H-pyrazolo[4,3-c]pyridin-3-yl)-N-ethylazetidine-3-carboxamide]
0.0009 | 0.0009 | 0.0265 | 0.344 | CC(C)n1nc(N2CC(C(=O)N3CCOCC3)C2)c2cnc(Nc3ccnc(-c4cnn(S(=O)(=O)C5CC5)c4)n3)cc21 [Example 163, (1-(6-(2-(1-(Cyclopropylsulfonyl)-1H-pyrazol-4-yl)pyrimidin-4-ylamino)-1-isopropyl-1H-pyrazolo[4,3-c]pyridin-3-yl)azetidin-3-yl)(morpholino)methanone]
